# Source: ChEMBL document CHEMBL1159294, “Bioactive Prenylhydroquinone Sulfates and a Novel C 31 Furanoterpene Alcohol Sulfate from the Marine Sponge, Ircinia Sp” (J Nat Prod, 1995)
# The source made the active and inactive calls. The rule behind the calls is not given here.
# Experiments:
# [1] = target: Receptor tyrosine-protein kinase erbB-2 (Homo sapiens, UniProt P04626); assay: Inhibition of HER2 overexpressed in mouse 3T3 cells by ELISA; format: cell-based, NIH3T3; conditions: for Activity: NIH3T3
# [2] = target: T1, Neuropeptide Y receptor type 1 (Rattus norvegicus, UniProt P21555); assay: (§1) Displacement of [3H]NPY from neuropeptide Y receptor in rat cerebral cortices
# T1 sequence (P21555 whole entry): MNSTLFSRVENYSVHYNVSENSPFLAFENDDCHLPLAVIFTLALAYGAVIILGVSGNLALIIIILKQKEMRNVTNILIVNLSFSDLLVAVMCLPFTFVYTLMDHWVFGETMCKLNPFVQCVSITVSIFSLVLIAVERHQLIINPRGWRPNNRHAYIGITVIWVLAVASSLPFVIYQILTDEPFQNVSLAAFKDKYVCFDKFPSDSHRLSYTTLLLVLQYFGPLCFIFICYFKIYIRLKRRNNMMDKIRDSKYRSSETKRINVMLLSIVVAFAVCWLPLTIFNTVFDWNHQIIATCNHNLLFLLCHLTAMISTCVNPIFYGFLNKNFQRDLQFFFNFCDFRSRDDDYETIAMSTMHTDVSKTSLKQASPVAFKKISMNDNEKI
# [3] = target: Human immunodeficiency virus type 1 integrase (Human immunodeficiency virus 1) (UniProt Q7ZJM1); assay: Inhibition of HIV1 integrase at 1 ug/ml by scintillation proximity assay
# [4] = target: T2, Neuropeptide Y receptor type 1 (Rattus norvegicus) (UniProt P21555); assay: as §1
# T2 sequence (whole entry): T1 sequence (P21555 whole entry)
# [5] = target: T3, B2 bradykinin receptor (Homo sapiens) (UniProt P30411); assay: Displacement of [3H]bradykinin from human bradykinin B2 receptor expressed in baculovirus-infected SF21 cells
# T3 sequence (whole entry): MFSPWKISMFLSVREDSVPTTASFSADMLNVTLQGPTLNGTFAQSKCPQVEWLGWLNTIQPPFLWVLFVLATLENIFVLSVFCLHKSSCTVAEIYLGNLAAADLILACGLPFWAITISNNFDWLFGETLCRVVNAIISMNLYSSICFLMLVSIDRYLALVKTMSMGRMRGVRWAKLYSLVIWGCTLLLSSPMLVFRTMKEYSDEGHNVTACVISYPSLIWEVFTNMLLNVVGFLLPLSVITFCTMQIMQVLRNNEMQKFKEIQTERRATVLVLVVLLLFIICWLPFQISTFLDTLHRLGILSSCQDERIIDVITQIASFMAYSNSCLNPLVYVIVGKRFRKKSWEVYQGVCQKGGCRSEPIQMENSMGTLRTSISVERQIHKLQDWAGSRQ
# [6] = Binding affinity to galanin receptor
# [7] = Binding affinity to neurotensin receptor
# [8] = target: Human immunodeficiency virus type 1 integrase (Human immunodeficiency virus 1) (UniProt Q7ZJM1); assay: Inhibition of HIV1 integrase at 5 ug/ml by scintillation proximity assay
# [9] = target: T4, VIP peptides (Homo sapiens) (UniProt P01282); assay: Binding affinity to vasoactive intestinal peptide
# T4 sequence (whole entry): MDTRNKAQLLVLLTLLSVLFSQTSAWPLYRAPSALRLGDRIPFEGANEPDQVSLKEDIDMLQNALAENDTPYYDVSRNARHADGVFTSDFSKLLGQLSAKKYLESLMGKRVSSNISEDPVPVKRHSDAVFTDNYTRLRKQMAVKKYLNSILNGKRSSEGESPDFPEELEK
# [10] = target: T5, Neuromedin-K receptor (Homo sapiens) (UniProt P29371); assay: Binding affinity to NK3 receptor
# T5 sequence (whole entry): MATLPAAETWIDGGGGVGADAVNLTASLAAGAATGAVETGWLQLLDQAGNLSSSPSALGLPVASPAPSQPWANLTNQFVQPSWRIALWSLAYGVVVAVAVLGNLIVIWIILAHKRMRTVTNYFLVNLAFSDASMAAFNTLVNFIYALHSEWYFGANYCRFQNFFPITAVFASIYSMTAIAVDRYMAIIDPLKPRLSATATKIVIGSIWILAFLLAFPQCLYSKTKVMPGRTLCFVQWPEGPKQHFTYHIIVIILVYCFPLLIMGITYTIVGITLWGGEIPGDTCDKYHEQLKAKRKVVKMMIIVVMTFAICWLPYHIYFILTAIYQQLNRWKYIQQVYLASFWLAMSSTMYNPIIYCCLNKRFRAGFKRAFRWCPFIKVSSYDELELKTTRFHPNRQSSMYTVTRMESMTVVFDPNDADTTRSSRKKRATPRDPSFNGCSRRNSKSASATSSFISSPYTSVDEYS
# Rattus norvegicus = species on record: Rattus norvegicus; assay: Displacement of radioiodinated somatostatins from rat somatostatin receptor
# Human immunodeficiency virus type 1 integrase (Human immunodeficiency virus 1), sequence (Q7ZJM1 as listed by the source): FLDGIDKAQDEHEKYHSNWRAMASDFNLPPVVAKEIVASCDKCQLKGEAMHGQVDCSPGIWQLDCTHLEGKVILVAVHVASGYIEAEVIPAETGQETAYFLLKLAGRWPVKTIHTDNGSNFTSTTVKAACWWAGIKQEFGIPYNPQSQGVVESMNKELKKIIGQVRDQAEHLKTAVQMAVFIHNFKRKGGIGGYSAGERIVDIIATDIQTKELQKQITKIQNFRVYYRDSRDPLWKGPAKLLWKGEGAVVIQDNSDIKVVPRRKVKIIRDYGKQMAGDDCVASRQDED
# Receptor tyrosine-protein kinase erbB-2, sequence (P04626 whole entry): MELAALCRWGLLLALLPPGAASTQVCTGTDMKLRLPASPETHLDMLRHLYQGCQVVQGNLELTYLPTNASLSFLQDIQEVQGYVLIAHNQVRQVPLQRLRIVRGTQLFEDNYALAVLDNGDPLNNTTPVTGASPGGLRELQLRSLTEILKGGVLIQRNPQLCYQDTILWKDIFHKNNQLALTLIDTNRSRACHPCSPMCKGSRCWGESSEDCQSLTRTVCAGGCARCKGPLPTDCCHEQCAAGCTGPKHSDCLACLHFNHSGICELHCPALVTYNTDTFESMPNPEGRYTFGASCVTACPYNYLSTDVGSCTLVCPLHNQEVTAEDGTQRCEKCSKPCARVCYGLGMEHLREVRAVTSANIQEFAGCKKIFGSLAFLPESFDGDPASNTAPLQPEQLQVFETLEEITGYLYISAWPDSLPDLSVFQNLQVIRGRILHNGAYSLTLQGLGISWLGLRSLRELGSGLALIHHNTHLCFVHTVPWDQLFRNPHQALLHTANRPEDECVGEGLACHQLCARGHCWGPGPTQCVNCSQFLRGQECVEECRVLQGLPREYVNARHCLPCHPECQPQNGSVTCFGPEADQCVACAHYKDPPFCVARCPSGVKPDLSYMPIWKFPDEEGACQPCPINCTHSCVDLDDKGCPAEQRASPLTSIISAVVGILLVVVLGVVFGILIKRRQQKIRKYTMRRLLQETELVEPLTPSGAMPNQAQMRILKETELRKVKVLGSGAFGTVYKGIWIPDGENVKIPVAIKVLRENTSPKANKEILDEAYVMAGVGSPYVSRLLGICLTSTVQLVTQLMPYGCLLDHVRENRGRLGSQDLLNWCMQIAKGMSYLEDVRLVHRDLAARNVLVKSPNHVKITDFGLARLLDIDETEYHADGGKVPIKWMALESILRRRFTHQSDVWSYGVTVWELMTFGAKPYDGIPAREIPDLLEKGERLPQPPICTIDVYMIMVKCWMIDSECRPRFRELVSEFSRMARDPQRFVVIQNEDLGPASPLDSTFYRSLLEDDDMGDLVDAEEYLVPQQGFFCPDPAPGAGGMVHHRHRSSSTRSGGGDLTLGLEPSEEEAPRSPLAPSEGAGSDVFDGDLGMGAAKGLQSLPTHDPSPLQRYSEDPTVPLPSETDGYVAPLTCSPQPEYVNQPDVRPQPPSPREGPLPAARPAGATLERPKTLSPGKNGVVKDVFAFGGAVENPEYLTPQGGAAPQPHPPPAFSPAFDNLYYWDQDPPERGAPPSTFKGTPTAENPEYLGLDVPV
IC50 [1],IC50 [2],inhibition [3],Activity [4],Activity [5],Activity [6],Activity [7],Activity [8],Activity [9],Activity [10],Activity [1],Activity (Rattus norvegicus),Activity [3],inhibition [8],SMILES
6.44 µM,,,,,,,,,,,,,,CC(C)=CCC/C(C)=C/CC/C(C)=C/CC/C(C)=C/CC/C(C)=C/CC/C(C)=C/Cc1cc(OS(=O)(=O)O)ccc1O
14.5 µM,91.9 µM,65%,,,,,,,,,,,,CC(C)=CCC/C(C)=C/CC/C(C)=C/CC/C(C)=C/CC/C(C)=C/Cc1cc(OS(=O)(=O)O)ccc1O
,,,inactive,inactive,inactive,inactive,inactive,inactive,inactive,inactive,inactive,inactive,,CC(C)=CCC/C(C)=C/CC/C(C)=C/CC/C(C)=C/CC/C(C)=C/CC/C(C)=C/CCC1(C)C=Cc2cc(O)ccc2O1 (configuration not stated)
11.6 µM,,,,,,,,,,,,,,CC(C)=CCC/C(C)=C/CC/C(C)=C/CC/C(C)=C/CC/C(C)=C/CC/C(C)=C/CC/C(C)=C/Cc1cc(OS(=O)(=O)O)ccc1O
,,,inactive,inactive,inactive,inactive,inactive,inactive,inactive,inactive,inactive,inactive,,CC(C)=CCC/C(C)=C/CC/C(C)=C/CC/C(C)=C/CCC1(C)C=Cc2cc(O)ccc2O1 (configuration not stated)
9.79 µM,,,,,,,,,,,,,45%,CC(C)=CCC/C(C)=C/CC/C(C)=C/CC/C(C)=C/CC/C(C)=C/CC/C(C)=C/CC/C(=C/Cc1cc(O)ccc1O)CO
,,,inactive,inactive,inactive,inactive,inactive,inactive,inactive,inactive,inactive,inactive,,CC(C)=CCC/C(C)=C/CC/C(C)=C/CC/C(C)=C/CC/C(C)=C/CCC1(C)C=Cc2cc(O)ccc2O1 (configuration not stated)
